How the values were obtained:
intact mouse islets = assay: Insulin release from intact mouse islets (ELISA); type: cell-based; conditions: 100 μM compound, 60 min incubation
Description: Intact pancreatic islets were isolated from fed NMRI mice (15-18 g) as previously described (Fuhlendorff et al., Diabetes, Vol. 47 (3) pp. 345-351, 1998). Insulin release was measured from groups of 10 size-matched islets, cultured overnight in RPMI-1640 tissue culture medium containing 1% GlutaMAX™ (Gibco BRL),1% penicillin/streptomycin, 7.5% NaHCO3 and 10% new-born calf serum. The islets were washed for 20 minutes in Krebs Ringer Buffer consisting of 115 mM NaCl, 4.7 mM KCl, 2.6 mM CaCl2, 1.2 mM KH2PO4, 1.2 mM MgSO4, 20 mM HEPES, 2 mM glutamine, 5 mM NaHCO3, 0.2% human serum albumin and 1% penicillin/streptomycin) and 2.5 mM, 5 mM or 10 mM D-glucose. Afterwashing, the islet were incubated for one hour at +37° C. in Krebs Ringer Buffer containing the test compound at 100 μM and glucose at 2.5 mM, 5 mM or 10 mM. After the one-hour incubation, the medium was aspirated and kept at −20° C. until assayed for insulin using the following ELISA technique. Immuno 96 well paltes (MaxiSorPTM, NUNC, Denmark) were coated over night at 4° C. with a rabbit-anti-guinea pig-lgG (Dako) antibody diluted 1:1000 in 0.1 M NaHCO3 (pH 9.8). After washing 4 times in 0.15 M NaCl and 0.005% Tween-20 the plates were incubated with guinea pig-anti-insulin diluted in phosphate buffered saline (incubation buffer; pH 7.4) containing 0.1% Tween-20 and 0.5% human serum albumin over night. After washing the sambles were incubated for 1.5 h with relevant samples and peroxidase-insulin (Sigma) diluted 1:10000 in PBS-DIL. The samples we-were then washed and developed with TMBPlus-substrated as described by the manufacture (KEM EN TEC, Denmark). The amount of insulin was quantified from a standard curve after reading the samples at 450 nm.
Elevating the external glucose concentration from 2.5 mM to 5 mM was not associated with an increase in insulin release whereas a 90% stimulation was observed following application of 10 mM glucose (P<0.05; n=8).

rat pancreatic α-cells = assay: Ca2+-dependent exocytosis (cell capacitance) in single rat pancreatic α-cells; type: cell-based
Description: Male Lewis rats (250-300 g; Møllegaard, Lille Skensved, Denmark) were anaesthetised by pentobarbital (100 mg/kg i.p.). After removal of the pancreas, islets were isolated by collagenase digestion and dispersed into single cells using dispase (Sigma). The α-cells were then separated by fluorescence-activated cell sorting as described elsewhere (Josefsen et al. J. Endocrinol., Vol.149, pp.145-154, 1996). Based on the hormone contents and their glucose sensitivities, we estimate that the preparation contains >80% α-cells and <3% β-cells. […]
Patch pipettes were drawn from borosilicate glass capillaries. […] The currents were recorded using an Axopatch 200B patch clamp amplifier (Axon Instruments, Foster City, Calif., USA), digitized and stored in a computer using the Digidata AD-converter and the software pClamp (version 6.0; Axon Instruments). Alternatively, KATP-currents were recorded using an EPC-9 patch clamp amplifier and the Pulse software (v. 8.01; HEKA Elektronik, Lamprecht/Pfalz, Germany). Exocytosis was monitored as increases in cell membrane capacitance (Neher & Marty Proc. Natl. Acad, Sci. USA, Vol. 79, pp. 6712-6716,1982) using the standard whole-cell configuration of the patch-clamp technique and an EPC-9 patch-clamp amplifier and the Pulse software (v. 8.01; HEKA Elektronik). […]

`COc1cccc(C(CC2=NCCN2)c2ccccn2)c1` (single isomer, unassigned; (-)) [compound (Ex 2), (−)-2-(2-(4,5-Dihydro-1H-imidazol-2-yl)-1-(3-methoxyphenyl)ethyl)pyridine] was tested, and the “effect on insulin release” value (intact mouse islets; 2.5 mM glucose) was “does not affect insulin release”, the “effect on insulin release” value (intact mouse islets; 5 mM glucose) was “does not affect insulin release” and the “stimulation of insulin secretion” value (intact mouse islets; 10 mM glucose, P<0.01, n=8) was 220%. For the same molecule, the “rate of exocytosis (ΔCm/Δt) measured over the first 60 s after establishment of the whole-cell configuration” value (rat pancreatic α-cells; 100 μM compound in pipette solution, free Ca2+ 2 μM, control 16.8±2.5 fF/s, n=5) was 4.6±0.7 fF/s and the “effect on Ca2+-dependent exocytosis (in words)” value (rat pancreatic α-cells; 0.1 mM compound, Ca2+ 2 μM) was “strong inhibition of the exocytotic response”.

— patent US20020132812A1, “Oral hypoglycaemic agents” (priority 2000, published 2002)
